{"source": "PubChem BioAssay AID1259409", "about": "(Chemical Carcinogenesis Research Information System (CCRIS), 2018)", "origin": "cited, not measured here", "tested_on": "rodent chemically induced tumor inhibition, incidence and multiplicity", "assay": "CCRIS tumor inhibitor studies", "data": [{"smiles": "NCCCCNCCCN", "values": [{"measurement": "tumour outcome (control, treated, inhibition, significance)", "setting": "Carcinogen: TRANS-5-AMINO-3-[2-(5-NITRO-2-FURYL)VINYL]-1,2,4-OXADIAZOLE;SQL8506, 28754-68-9, Carcinogen: TRANS-5-AMINO-3-[2-(5-NITRO-2-FURYL)VINYL]-1,2,4-OXADIAZOLE;SQL8506, 28754-68-9, Dose [Inhibitor]: 150 MG/KG 16 HR BEFORE THE 1ST CARCINOGEN DOSE FOLLOWED BY ADDITIONAL DOSES IMMEDIATELY BEFORE EACH DOSE OF CARCINOGEN (, Route [Inhibitor]: INTRAPERITONEAL, Species: MOUSE, Strain/Sex: CD-1/FEMALE, Target Tissue: Type of Lesion: HEMATOPOIETIC SYSTEM: MYELOID LEUKEMIA, Dose [Carcinogen]: 1 G/KG 2/D FOR 5 D EVERY 4 WK FOR 3 COURSES OF TREATMENT, Promoter: NONE USED", "result": "7/137 (5%), 2/31 (6%), -20%, not calculated"}, {"measurement": "tumour outcome (control, treated, inhibition, significance)", "setting": "Carcinogen: TRANS-5-AMINO-3-[2-(5-NITRO-2-FURYL)VINYL]-1,2,4-OXADIAZOLE;SQL8506, 28754-68-9, Carcinogen: TRANS-5-AMINO-3-[2-(5-NITRO-2-FURYL)VINYL]-1,2,4-OXADIAZOLE;SQL8506, 28754-68-9, Dose [Inhibitor]: 150 MG/KG 16 HR BEFORE THE 1ST CARCINOGEN DOSE FOLLOWED BY ADDITIONAL DOSES IMMEDIATELY BEFORE EACH DOSE OF CARCINOGEN (, Route [Inhibitor]: INTRAPERITONEAL, Species: MOUSE, Strain/Sex: CD-1/FEMALE, Target Tissue: Type of Lesion: LYMPHOID TISSUE: NONTHYMIC LYMPHOMA, Dose [Carcinogen]: 1 G/KG 2/D FOR 5 D EVERY 4 WK FOR 3 COURSES OF TREATMENT, Promoter: NONE USED", "result": "8/137 (6%), 1/31 (3%), 50%, not calculated"}, {"measurement": "tumour outcome (control, treated, inhibition, significance)", "setting": "Carcinogen: TRANS-5-AMINO-3-[2-(5-NITRO-2-FURYL)VINYL]-1,2,4-OXADIAZOLE;SQL8506, 28754-68-9, Carcinogen: TRANS-5-AMINO-3-[2-(5-NITRO-2-FURYL)VINYL]-1,2,4-OXADIAZOLE;SQL8506, 28754-68-9, Dose [Inhibitor]: 150 MG/KG 16 HR BEFORE THE 1ST CARCINOGEN DOSE FOLLOWED BY ADDITIONAL DOSES IMMEDIATELY BEFORE EACH DOSE OF CARCINOGEN (, Route [Inhibitor]: INTRAPERITONEAL, Species: MOUSE, Strain/Sex: CD-1/FEMALE, Target Tissue: Type of Lesion: LYMPHOID TISSUE: THYMIC LYMPHOMA, Dose [Carcinogen]: 1 G/KG 2/D FOR 5 D EVERY 4 WK FOR 3 COURSES OF TREATMENT, Promoter: NONE USED", "result": "22/137 (16%), 4/31 (13%), 19%, not calculated"}, {"measurement": "tumour outcome (control, treated, inhibition, significance)", "setting": "Carcinogen: TRANS-5-AMINO-3-[2-(5-NITRO-2-FURYL)VINYL]-1,2,4-OXADIAZOLE;SQL8506, 28754-68-9, Carcinogen: TRANS-5-AMINO-3-[2-(5-NITRO-2-FURYL)VINYL]-1,2,4-OXADIAZOLE;SQL8506, 28754-68-9, Dose [Inhibitor]: 150 MG/KG 16 HR BEFORE THE 1ST CARCINOGEN DOSE FOLLOWED BY ADDITIONAL DOSES IMMEDIATELY BEFORE EACH DOSE OF CARCINOGEN (, Route [Inhibitor]: INTRAPERITONEAL, Species: MOUSE, Strain/Sex: CD-1/FEMALE, Target Tissue: Type of Lesion: STOMACH: SQUAMOUS SARCOMA, Dose [Carcinogen]: 1 G/KG 2/D FOR 5 D EVERY 4 WK FOR 3 COURSES OF TREATMENT, Promoter: NONE USED", "result": "60/137 (44%), 7/31 (23%), 48%, not calculated"}]}, {"smiles": "COc1c2ccoc2c(OC)c2oc(=O)ccc12", "values": [{"measurement": "tumour outcome (control, treated, inhibition, significance)", "setting": "Carcinogen: 7,12-DIMETHYLBENZ[A]ANTHRACENE, 57-97-6, Dose [Inhibitor]: 0, 30 MG/KG BW TWICE AT 24 HR AND 2 HR PRIOR TO CARCINOGEN DOSE (STUDY DURATION: 18 WK), Route [Inhibitor]: GAVAGE, Species: MOUSE, Strain/Sex: SENCAR/FEMALE, Target Tissue: Type of Lesion: INTEGUMENTARY SYSTEM: SKIN PAPILLOMA, Dose [Carcinogen]: 10 NMOL IN 0.2 ML ACETONE ONCE, Promoter: 12-O-TETRADECANOYLPHORBOL-13-ACETATE, 16561-29-8", "result": "30/30 (100%), 29/30 (97%), 3%, not significant"}, {"measurement": "tumour outcome (control, treated, inhibition, significance)", "setting": "Carcinogen: 7,12-DIMETHYLBENZ[A]ANTHRACENE, 57-97-6, Dose [Inhibitor]: 0, 70 MG/KG BW TWICE AT 24 HR AND 2 HR PRIOR TO CARCINOGEN DOSE (STUDY DURATION: 18 WK), Route [Inhibitor]: GAVAGE, Species: MOUSE, Strain/Sex: SENCAR/FEMALE, Target Tissue: Type of Lesion: INTEGUMENTARY SYSTEM: SKIN PAPILLOMA, Dose [Carcinogen]: 10 NMOL IN 0.2 ML ACETONE ONCE, Promoter: 12-O-TETRADECANOYLPHORBOL-13-ACETATE, 16561-29-8", "result": "30/30 (100%), 26/30 (86%), 14%, not significant"}, {"measurement": "tumour outcome (control, treated, inhibition, significance)", "setting": "Carcinogen: 7,12-DIMETHYLBENZ[A]ANTHRACENE, 57-97-6, Dose [Inhibitor]: 0, 150 MG/KG BW TWICE AT 24 HR AND 2 HR PRIOR TO CARCINOGEN DOSE (STUDY DURATION: 18 WK), Route [Inhibitor]: GAVAGE, Species: MOUSE, Strain/Sex: SENCAR/FEMALE, Target Tissue: Type of Lesion: INTEGUMENTARY SYSTEM: SKIN PAPILLOMA, Dose [Carcinogen]: 10 NMOL IN 0.2 ML ACETONE ONCE, Promoter: 12-O-TETRADECANOYLPHORBOL-13-ACETATE, 16561-29-8", "result": "30/30 (100%), 23/30 (78%), 22%, p< 0.006"}, {"measurement": "tumour outcome (control, treated, inhibition, significance)", "setting": "Carcinogen: 7,12-DIMETHYLBENZ[A]ANTHRACENE, 57-97-6, Dose [Inhibitor]: 0, 400 NMOL IN 0.2 ML ACETONE ONCE 5 MIN PRIOR TO CARCINOGEN DOSE (STUDY DURATION: 18 WK), Route [Inhibitor]: DERMAL, Species: MOUSE, Strain/Sex: SENCAR/FEMALE, Target Tissue: Type of Lesion: INTEGUMENTARY SYSTEM: SKIN PAPILLOMA, Dose [Carcinogen]: 10 NMOL IN 0.2 ML ACETONE ONCE, Promoter: 12-O-TETRADECANOYLPHORBOL-13-ACETATE, 16561-29-8", "result": "30/30 (100%), 28/30 (93%), 7%, not significant"}, {"measurement": "tumour outcome (control, treated, inhibition, significance)", "setting": "Carcinogen: 7,12-DIMETHYLBENZ[A]ANTHRACENE, 57-97-6, Dose [Inhibitor]: 0, 800 NMOL IN 0.2 ML ACETONE ONCE 5 MIN PRIOR TO CARCINOGEN DOSE (STUDY DURATION: 18 WK), Route [Inhibitor]: DERMAL, Species: MOUSE, Strain/Sex: SENCAR/FEMALE, Target Tissue: Type of Lesion: INTEGUMENTARY SYSTEM: SKIN PAPILLOMA, Dose [Carcinogen]: 10 NMOL IN 0.2 ML ACETONE ONCE, Promoter: 12-O-TETRADECANOYLPHORBOL-13-ACETATE, 16561-29-8", "result": "30/30 (100%), 27/30 (90%), 10%, not significant"}, {"measurement": "tumour outcome (control, treated, inhibition, significance)", "setting": "Carcinogen: 7,12-DIMETHYLBENZ[A]ANTHRACENE, 57-97-6, Dose [Inhibitor]: 0, 1600 NMOL IN 0.2 ML ACETONE ONCE 5 MIN PRIOR TO CARCINOGEN DOSE (STUDY DURATION: 18 WK), Route [Inhibitor]: DERMAL, Species: MOUSE, Strain/Sex: SENCAR/FEMALE, Target Tissue: Type of Lesion: INTEGUMENTARY SYSTEM: SKIN PAPILLOMA, Dose [Carcinogen]: 10 NMOL IN 0.2 ML ACETONE ONCE, Promoter: 12-O-TETRADECANOYLPHORBOL-13-ACETATE, 16561-29-8", "result": "30/30 (100%), 23/30 (77%), 23%, p< 0.002"}, {"measurement": "tumour outcome (control, treated, inhibition, significance)", "setting": "Carcinogen: 7,12-DIMETHYLBENZ[A]ANTHRACENE, 57-97-6, Dose [Inhibitor]: 0, 3200 NMOL IN 0.2 ML ACETONE ONCE 5 MIN PRIOR TO CARCINOGEN DOSE (STUDY DURATION: 18 WK), Route [Inhibitor]: DERMAL, Species: MOUSE, Strain/Sex: SENCAR/FEMALE, Target Tissue: Type of Lesion: INTEGUMENTARY SYSTEM: SKIN PAPILLOMA, Dose [Carcinogen]: 10 NMOL IN 0.2 ML ACETONE ONCE, Promoter: 12-O-TETRADECANOYLPHORBOL-13-ACETATE, 16561-29-8", "result": "30/30 (100%), 27/30 (89%), 11%, not significant"}]}, {"smiles": "C=C1CC[C@H]2[C@](C)(COC(=O)[C@@H](CC(=O)O)[C@@H](OC[C@H]3C(=C)CC[C@H]4[C@](C)(CO)CCC[C@]34C)C(=O)OC)CCC[C@]2(C)[C@H]1CO[C@@H](C(=O)OC)[C@H](CC(=O)O)C(=O)OC", "values": [{"measurement": "tumour outcome (control, treated, inhibition, significance)", "setting": "Carcinogen: 1,2-DIMETHYLHYDRAZINE DIHYDROCHLORIDE, 306-37-6, Dose [Inhibitor]: 0: 0.06% IN DIET FOR DURATION OF STUDY (STUDY DURATION: 25 WK), Route [Inhibitor]: ORAL, Species: MOUSE, Strain/Sex: ICR/FEMALE, Target Tissue: Type of Lesion: COLON: TUMOR, Dose [Carcinogen]: 10 MG/KG BW IN 0.9% SALINE 1/WK FOR 15 WK, Promoter: NONE USED", "result": "10/16 (63%), 5/16 (31%), 51%, not significant"}, {"measurement": "tumour outcome (control, treated, inhibition, significance)", "setting": "Carcinogen: 7,12-DIMETHYLBENZ[A]ANTHRACENE, 57-97-6, Dose [Inhibitor]: 0, 1 MG 2/WK FOR 20 WK APPLIED 10 MIN PRIOR TO EACH PROMOTER DOSE (STUDY DURATION: 20 WK), Route [Inhibitor]: DERMAL, Species: MOUSE, Strain/Sex: CD-1/FEMALE, Target Tissue: Type of Lesion: SKIN: TUMOR, Dose [Carcinogen]: 100 UG ONCE, Promoter: OKADAIC ACID, 78111-17-8", "result": "73%, 53%, 27%, not calculated"}, {"measurement": "tumour outcome (control, treated, inhibition, significance)", "setting": "Carcinogen: 7,12-DIMETHYLBENZ[A]ANTHRACENE, 57-97-6, Dose [Inhibitor]: 0, 5 MG 2/WK FOR 20 WK APPLIED 10 MIN PRIOR TO EACH PROMOTER DOSE (STUDY DURATION: 20 WK), Route [Inhibitor]: DERMAL, Species: MOUSE, Strain/Sex: CD-1/FEMALE, Target Tissue: Type of Lesion: SKIN: TUMOR, Dose [Carcinogen]: 100 UG ONCE, Promoter: OKADAIC ACID, 78111-17-8", "result": "73%, 20%, 73%, not calculated"}, {"measurement": "tumour outcome (control, treated, inhibition, significance)", "setting": "Carcinogen: N-METHYL-N-NITROSOUREA, 684-93-5, Dose [Inhibitor]: 0, 0.2% IN DIET FOR 33 WK BEGINNING POST CARCINOGEN TREATMENT (STUDY DURATION: 35 WK), Route [Inhibitor]: ORAL, Species: RAT, Strain/Sex: F344/FEMALE, Target Tissue: Type of Lesion: COLON: TUMOR, Dose [Carcinogen]: 2 MG 3/WK FOR 2 WK, Promoter: NONE USED", "result": "12/16 (75%), 5/16 (31%), 57%, p<0.05"}]}]}
